Reference: US12419855B2, “Compositions comprising cannabinoid ions that are dissolved in glycerol” (Natural Extraction Systems, LLC, priority 2019, dated 2025)

Tests used:
[1] = system: chronic insomnia; assay: Efficacy against insomnia in humans; assay type: in vivo; details: adult human with chronic insomnia; approximately 25 milligrams in a formulation prepared according to Example 3; self-reported
[2] = system: active seizures in an epileptic Entlebucher Mountain Dog; assay: Arresting active seizures in canine; assay type: in vivo; details: single oral dose of 0.5-1.0 mg/kg in a formulation prepared according to Example 1
[3] = Solubility in ethanol:glycerol; assay type: physicochemical; details: in 25:75 by volume ethanol:glycerol; stated as lower than the 25 grams per liter of cannabidiol anion in the formulation
From the text: Cannabidiol is deprotonated in 0.5 molar potassium hydroxide in 190 proof ethanol to produce cannabidiol anion (2-(6-isopropenyl-3-methylcyclohex-2-en-1-yl)-3-hydroxy-5-pentylbenzene-1-oxide).

CCCCCc1cc(O)c(CC=C(C)CCC=C(C)C)c(O)c1 [cannabigerol anion, 2-(3,7-dimethylocta-2,6-diene-1-yl)-3-hydroxy-5-pentylbenzene-1-oxide]
onset time of sedative effect [1]: less than five
sedative effect on insomnia [1]: effective at treating the insomnia

C=C(C)C1CCC(C)=CC1c1c(O)cc(CCCCC)cc1O (centres unmarked) [cannabidiol anion, 2-(6-isopropenyl-3-methylcyclohex-2-en-1-yl)-3-hydroxy-5-pentylbenzene-1-oxide]
arrest of active seizures [2]: both consistently and instantaneously arrested active seizures
seizure duration and severity [2]: reduced seizure duration and severity

C=C(C)[C@@H]1CCC(C)=C[C@H]1c1c(O)cc(CCCCC)cc1O [molecular cannabidiol, cannabidiol]
solubility of molecular cannabidiol [3]: < 25 grams per liter
